Measured values reported in patent US20260317324A1, “BIFUNCTIONAL COMPOUNDS FOR DEGRADING BRAF VIA UBIQUITIN PROTEOSOME PATHWAY” (Nurix Therapeutics, Inc., priority 2023, published 2026).

What was measured:
Assay type in all cases: cell-based
BRAF V600E = target: T1, BRAF V600E (Homo sapiens, UniProt P15056, V600E); experiment: BRAF HiBiT degradation assay, C-terminal HiBiT-tagged BRAF V600E A375 cells (clone 1F10), Nano-Glo HiBiT Lytic assay; settings: A375 (BRAF V600E, Class 1); for DC50: DC50 at 50% degradation; for Dmax: A-375, observed Dmax, % protein degraded relative to DMSO control
T1 construct: endogenous C-terminal HiBiT fusion tag on BRAF V600E allele; endogenous in cells; host or cells: A375 clone 1F10 (CRISPR-Cas9 knock-in of the HiBiT tag; parental A375 from ATCC)
Summary of the method: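 Steps: seed HiBiT-tagged A375 clone 1F10 cells; incubate 24 h, 37 °C, 5% CO2; add compound (11 half-log points from 1 μM, 0.2% DMSO); lyse with HiBiT detection reagent plus LgBiT for 10 min; read luminescence; fit % protein remaining against concentration.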

BRAF G466V = target: T2, BRAF G466V (Homo sapiens, UniProt P15056, G466V); experiment: BRAF HiBiT degradation assay, C-terminal HiBiT-tagged BRAF G466V overexpressed in HCT-116 BRAF−/− cells (clone 8), Nano-Glo HiBiT Lytic assay; settings: BRAF G466V (Class 3), HCT-116 BRAF−/− cells; for DC50: DC50 at 50% degradation; for Dmax: observed Dmax relative to DMSO control
T2 construct: Horizon Discovery (HCT-116 BRAF−/− cells); host or cells: HCT-116 BRAF−/− cells, clone 8, lentiviral transduction
Summary of the method: (§1)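 We quantified degradation of the C-terminally HiBiT-tagged, overexpressed mutant by lytic luminescence, normalizing to DMSO-treated cells with wild-type HCT-116 background subtracted. Dose series ran from 1 μM to 0.01 nM at 0.2% DMSO. Observed Dmax is % degraded at maximal effect.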

BRAF G469A = target: T3, BRAF G469A (Homo sapiens, UniProt P15056, G469A); experiment: BRAF HiBiT degradation assay, C-terminal HiBiT-tagged BRAF G469A overexpressed in HCT-116 BRAF−/− cells (clone 34), Nano-Glo HiBiT Lytic assay; settings: BRAF G469A (Class 2), HCT-116 BRAF−/− cells; for DC50: DC50 at 50% degradation; for Dmax: observed Dmax relative to DMSO control
T3 construct: Horizon Discovery (HCT-116 BRAF−/− cells); host or cells: HCT-116 BRAF−/− cells, clone 34, lentiviral transduction
Summary of the method: as §1

BRAF D594G = target: T4, BRAF D594G (Homo sapiens, UniProt P15056, D594G); experiment: BRAF HiBiT degradation assay, C-terminal HiBiT-tagged BRAF D594G overexpressed in HCT-116 BRAF−/− cells (clone 63), Nano-Glo HiBiT Lytic assay; settings: BRAF D594G (Class 3), HCT-116 BRAF−/− cells; for DC50: DC50 at 50% degradation; for Dmax: observed Dmax relative to DMSO control
T4 construct: Horizon Discovery (HCT-116 BRAF−/− cells); host or cells: HCT-116 BRAF−/− cells, clone 63, lentiviral transduction
Summary of the method: as §1

T3 sequence (P15056 whole entry G469A): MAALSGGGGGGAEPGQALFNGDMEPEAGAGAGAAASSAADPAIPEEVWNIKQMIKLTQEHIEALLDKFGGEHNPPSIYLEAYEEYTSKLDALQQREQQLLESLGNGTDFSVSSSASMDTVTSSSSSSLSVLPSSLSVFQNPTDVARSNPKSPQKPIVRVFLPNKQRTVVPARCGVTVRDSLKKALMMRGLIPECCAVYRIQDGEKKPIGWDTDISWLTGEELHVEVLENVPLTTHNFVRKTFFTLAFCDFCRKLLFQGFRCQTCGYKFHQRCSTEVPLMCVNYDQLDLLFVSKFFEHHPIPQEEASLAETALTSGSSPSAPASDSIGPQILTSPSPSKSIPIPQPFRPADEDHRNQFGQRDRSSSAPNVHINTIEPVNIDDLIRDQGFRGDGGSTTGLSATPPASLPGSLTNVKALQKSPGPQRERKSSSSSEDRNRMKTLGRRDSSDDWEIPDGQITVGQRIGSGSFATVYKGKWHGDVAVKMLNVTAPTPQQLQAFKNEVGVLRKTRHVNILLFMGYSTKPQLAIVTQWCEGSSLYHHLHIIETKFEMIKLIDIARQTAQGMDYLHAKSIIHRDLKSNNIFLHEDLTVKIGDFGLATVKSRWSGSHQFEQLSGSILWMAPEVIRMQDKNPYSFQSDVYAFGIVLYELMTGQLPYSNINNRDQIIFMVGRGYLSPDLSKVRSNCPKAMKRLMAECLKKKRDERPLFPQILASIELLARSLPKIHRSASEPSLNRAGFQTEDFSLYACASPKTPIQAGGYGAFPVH
T4 sequence (P15056 whole entry D594G): as the sequence (P15056 whole entry G469A) above, with A469G, D594G counted along it
T1 sequence (P15056 whole entry V600E, the tested form may be a part): as the sequence (P15056 whole entry G469A) above, with A469G, V600E counted along it
T2 sequence (P15056 whole entry G466V): as the sequence (P15056 whole entry G469A) above, with G466V, A469G counted along it

O=C1CC[C@H](c2ccc(N3CCC(CN4CCN(c5ccc(-n6cc(-c7cc(Cl)cc(NS(=O)(=O)N8CC[C@@H](F)C8)c7F)c(-c7ccncc7)n6)cc5F)CC4)CC3)cc2)C(=O)N1 [Compound 367, (3R)—N-{5-chloro-3-[1-(4-{4-[(1-{4-[(3R)-2,6-dioxopiperidin-3-yl]phenyl}piperidin-4-yl)methyl]piperazin-1-yl}-3-fluorophenyl)-3-(pyridin-4-yl)-1H-pyrazol-4-yl]-2-fluorophenyl}-3-fluoropyrrolidine-1-sulfonamide]
DC50 (BRAF V600E): < 10 nM
Dmax (BRAF V600E): > 70%
DC50 (BRAF G466V): < 10 nM
Dmax (BRAF G466V): > 70%
DC50 (BRAF G469A): < 10 nM
Dmax (BRAF G469A): > 70%
DC50 (BRAF D594G): < 10 nM
Dmax (BRAF D594G): > 70%

O=C1CCN(c2ccc(N3CCC(CN4CCN(c5ccc(-n6cc(-c7cc(Cl)cc(NS(=O)(=O)N8CC(F)C8)c7F)c(-c7ccncc7)n6)cc5)CC4)CC3)nc2)C(=O)N1 [Compound 368, N-[5-chloro-3-(1-{4-[4-({1-[5-(2,4-dioxo-1,3-diazinan-1-yl)pyridin-2-yl]piperidin-4-yl}methyl)piperazin-1-yl]phenyl}-3-(pyridin-4-yl)-1H-pyrazol-4-yl)-2-fluorophenyl]-3-fluoroazetidine-1-sulfonamide]
DC50 (BRAF V600E): < 10 nM
Dmax (BRAF V600E): > 70%
DC50 (BRAF G466V): < 10 nM
Dmax (BRAF G466V): 30 to 70%
DC50 (BRAF G469A): 10 to 50 nM
Dmax (BRAF G469A): 30 to 70%
DC50 (BRAF D594G): < 10 nM
Dmax (BRAF D594G): 30 to 70%

O=C1CCN(c2ccc(N3CCC(CN4CCN(c5ccc(-n6cc(-c7cc(Cl)cc(NS(=O)(=O)N8CC(F)C8)c7F)c(-c7ccncc7)n6)c(F)c5)CC4)CC3)nc2)C(=O)N1 [Compound 369, N-[5-chloro-3-(1-{4-[4-({1-[5-(2,4-dioxo-1,3-diazinan-1-yl)pyridin-2-yl]piperidin-4-yl}methyl)piperazin-1-yl]-2-fluorophenyl}-3-(pyridin-4-yl)-1H-pyrazol-4-yl)-2-fluorophenyl]-3-fluoroazetidine-1-sulfonamide]
DC50 (BRAF V600E): < 10 nM
Dmax (BRAF V600E): > 70%
DC50 (BRAF G466V): 10 to 50 nM
Dmax (BRAF G466V): 30 to 70%
DC50 (BRAF G469A): < 10 nM
Dmax (BRAF G469A): 30 to 70%
DC50 (BRAF D594G): < 10 nM
Dmax (BRAF D594G): 30 to 70%

O=C1CCN(c2ccc(N3CCC(CN4CCN(c5ccc(-n6cc(-c7cc(Cl)cc(NS(=O)(=O)N8CCCC8)c7F)c(-c7ccncc7)n6)c(F)c5)CC4)CC3)nc2)C(=O)N1 [Compound 370, N-[5-chloro-3-(1-{4-[4-({1-[5-(2,4-dioxo-1,3-diazinan-1-yl)pyridin-2-yl]piperidin-4-yl}methyl)piperazin-1-yl]-2-fluorophenyl}-3-(pyridin-4-yl)-1H-pyrazol-4-yl)-2-fluorophenyl]pyrrolidine-1-sulfonamide]
DC50 (BRAF V600E): < 10 nM
Dmax (BRAF V600E): > 70%
DC50 (BRAF G466V): < 10 nM
Dmax (BRAF G466V): 30 to 70%
DC50 (BRAF G469A): > 500 nM
Dmax (BRAF G469A): 30 to 70%
DC50 (BRAF D594G): < 10 nM
Dmax (BRAF D594G): 30 to 70%

O=C1CCN(c2ccc(N3CCC(CN4CCN(c5ccc(-n6cc(-c7cc(Cl)cc(NS(=O)(=O)N8CC[C@@H](F)C8)c7F)c(-c7ccncc7)n6)c(F)c5)CC4)CC3)nc2)C(=O)N1 [Compound 371, (3R)—N-[5-chloro-3-(1-{4-[4-({1-[5-(2,4-dioxo-1,3-diazinan-1-yl)pyridin-2-yl]piperidin-4-yl}methyl)piperazin-1-yl]-2-fluorophenyl}-3-(pyridin-4-yl)-1H-pyrazol-4-yl)-2-fluorophenyl]-3-fluoropyrrolidine-1-sulfonamide]
DC50 (BRAF V600E): < 10 nM
Dmax (BRAF V600E): > 70%
DC50 (BRAF G466V): < 10 nM
Dmax (BRAF G466V): 30 to 70%
DC50 (BRAF G469A): < 10 nM
Dmax (BRAF G469A): 30 to 70%
DC50 (BRAF D594G): < 10 nM
Dmax (BRAF D594G): 30 to 70%
